The record followed here is ChEMBL document CHEMBL4715887, “Synthesis of novel isoflavone/benzo-δ-sultam hybrids as potential anti-inflammatory drugs” (Bioorg Med Chem Lett, 2021).

Series [1] has as its system BV-2. Put plainly: Cytotoxicity against mouse BV2 cells assessed as reduction in cell viability at 20 uM after 24 hrs by XTT assay. Format: cell-based. As to conditions: bv-2, 24 h. On the technique in general: Tetrazolium dyes change colour on reduction, which living cells bring about.
A short description of series [2]: Cytotoxicity against mouse BV2 cells assessed as cell viability at 20 uM after 24 hrs by XTT assay relative to control. The class given is cell-based, BV-2. The note with it: read-out: Activity.
The test system of series [3] is BV-2. Put plainly: Antiinflammatory activity in mouse BV2 cells assessed as reduction in LPS-induced NO-production at 20 uM after 24 hrs by Griess reagent based assay relative to control. Format: functional. A general note: Nitrite, measured by Griess reagent, commonly stands in for NO production.
In series [4] the test system is BV-2. Nature of the series: Antiinflammatory activity in mouse BV2 cells assessed as LPS-induced NO-production at 20 uM after 24 hrs by Griess reagent based assay relative to control. Format: functional.
Series [5] deals with BV-2. Put plainly: Antiinflammatory activity in mouse BV2 cells assessed as LPS-induced TNFalpha-production at 20 uM after 24 hrs by Griess reagent based assay relative to control. The class given is functional.

Activity calls are given as the source filed them. The rule behind the calls is not given here.

Consider `O=S(=O)(Nc1ccccc1)c1ccccc1Br`, for which the Activity result in the series with BV-2 [1] was “Non-Toxic”.
What is called inhibition is how much of the control response was suppressed. As for `O=c1c(-c2ccc(O)cc2)coc2cc(O)ccc12` [DAIDZEIN], the viability at 24 h, 20 µM in series [2] is greater than 80%. In addition, the Activity entry in the series on BV-2 [1] was “Non-Toxic”. Further, in the series with BV-2 [3], the inhibition at 20 µM was found to be 35%.
Take `COc1ccc2c(=O)c(C3=Cc4ccccc4S(=O)(=O)N3C)coc2c1`: the Activity entry in the series on BV-2 [1] is reported as “Non-Toxic”. Besides, the inhibition entry with BV-2 [3] was “Active”.
For the compound `C#Cc1coc2cc(OC)ccc2c1=O`, the viability at 24 h, 20 µM in series [2] amounted to 49%.
As for `COc1ccc2c(=O)c(-c3ccc([N+](=O)[O-])cc3)coc2c1`, in the series with BV-2 [1], the Activity result is recorded as “Non-Toxic”. In the series on BV-2 [3], the inhibition entry is “inactive”.
Turning to `CNS(=O)(=O)c1ccccc1Br`, in the series on BV-2 [1], the Activity entry is listed as “Non-Toxic”.
Consider `COc1ccc2c(=O)c(-c3ccc(N)cc3)coc2c1`, for which the Activity entry in the series with BV-2 [1] is “Non-Toxic”; in the series on BV-2 [4], 42%. In addition, the outcome in the series on BV-2 [5] was Active.
For the compound `COc1ccc2c(=O)c(-c3ccc(N4C(c5ccccc5)=Cc5ccccc5S4(=O)=O)cc3)coc2c1`, the Activity entry in the series on BV-2 [1] was “Toxic”. For the same compound, the inhibition result in the series on BV-2 [3] is “Active”.
Take `COc1ccc2c(=O)c(I)coc2c1`: the values for the Activity entry in the series with BV-2 [1], in the series with BV-2 [4] and in the series on BV-2 [5] were “Non-Toxic”, 21% and 26%, respectively.
As to `COc1ccc2c(=O)c(-c3ccc(NS(=O)(=O)c4ccccc4C#Cc4ccccc4)cc3)coc2c1`, the Activity entry with BV-2 [1] is recorded as “Non-Toxic”. The inhibition result with BV-2 [3] is “Active”.
As to `COc1ccc(CN2C(c3coc4cc(OC)ccc4c3=O)=Cc3ccccc3S2(=O)=O)cc1`, the results for the Activity result in the series with BV-2 [1], with BV-2 [4] and in the series with BV-2 [5] were “Non-Toxic”, 41% and 34%, respectively. The inhibition entry in the series on BV-2 [3] was “Active”.
As for `COc1ccc2c(=O)c(C3=Cc4ccccc4S(=O)(=O)N3)coc2c1`, the results for the Activity result in the series with BV-2 [1] and in the series with BV-2 [4] were “Toxic” and 24%, respectively. In the series on BV-2 [3], the inhibition entry was “Active”.
Take `COc1ccc(CNS(=O)(=O)c2ccccc2C#Cc2coc3cc(OC)ccc3c2=O)cc1`: in the series with BV-2 [3], the inhibition result is “Active”.
With `O=S(=O)(Nc1ccccc1)c1ccccc1I`, the Activity result with BV-2 [1] was “Non-Toxic”.
`COc1ccc2c(=O)c(C#C[Si](C)(C)C)coc2c1`: the Activity entry is reported as “Non-Toxic” in the series with BV-2 [1] and 21% with BV-2 [4]. Moreover, the inhibition result in the series on BV-2 [3] was “Active”.
`COc1ccc2c(=O)c(-c3ccc(NS(=O)(=O)c4ccccc4Br)cc3)coc2c1`: the Activity result is recorded as “Non-Toxic” with BV-2 [1] and 26% in the series with BV-2 [4]. For the same compound, the inhibition entry in the series with BV-2 [3] was “Active”.
As for `COc1ccc2c(=O)c(C#Cc3ccccc3S(=O)(=O)Nc3ccccc3)coc2c1`, the Activity entry with BV-2 [1] is given as “Toxic”. Further, in the series with BV-2 [3], the inhibition result is “Active”.
For `COc1ccc2c(=O)c(C3=Cc4ccccc4S(=O)(=O)N3c3ccccc3)coc2c1`, the Activity result in the series with BV-2 [1] is recorded as “Non-Toxic”. Moreover, the inhibition result in the series with BV-2 [3] was “Active”.
Take `COc1ccc(CNS(=O)(=O)c2ccccc2I)cc1`: in the series with BV-2 [1], the Activity entry is recorded as “Non-Toxic”.
`COc1ccc(-c2coc3cc(O)cc(O)c3c2=O)cc1` [BIOCHANIN]: in series [2], the viability at 24 h, 20 µM turned out to be 76%. The Activity result is given as “Non-Toxic” with BV-2 [1] and 33% with BV-2 [5]. Also, the inhibition at 20 µM in the series with BV-2 [3] was found to be 41%.
As to `CNS(=O)(=O)c1ccccc1I`, the Activity entry with BV-2 [1] is “Non-Toxic”.
